Laboratory results reported in PubChem BioAssay (NCI).
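How tested: cells in 96-well plates exposed to compound for 48 hours at five concentrations. TGI: total growth inhibition.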

Test system: RXF-631 renal
Test: growth of human tumour cells (NCI), 48 h

Q: `C=C(C)C1Cc2c(cc(O)c3c(=O)c4ccccc4n(C)c23)O1` (stereo unspecified) was tested. Which TGI did it give?
A: The TGI was greater than 100 µM.
